Test system: IGROV1 complex spheroids (HUVEC, MSC), viability % test/control
Assay: Anticancer human tumor IGROV1 cell line growth inhibition [GQUAD];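 also: spheroids exposed to compounds for 7 days before readout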
Details: for IC50: curve of first compound; for viability, T/C: stronger effect = lower value
Excerpt: DNA G-quadruplex Stabilizer Agents in Combinations in Complex Spheroids
A high-throughput screen of multi-cell type tumor spheroids was designed to identify active combinations of DNA G-quadruplex stabilizer agents and targeted small molecules. Complex spheroids include a stromal component modeled by human endothelial cells (HUVEC) and fibroblasts modeled by human mesenchymal stem cells (MSCs). The concentration ranges selected for each drug and investigational agent were based upon clinically achievable concentrations if the clinical Cmax of the agent was known.
Compounds. The drugs and investigational agents: pidnarulex (CX-5461; NSC782164), APTO-253 (NSC789042), BRACO-19 (NSC847499), peposertib (NSC802822), ceralasertib (NSC780249), elimusertib (NSC800525), camonsertib (NSC841442), AZD-1390 (NSC803789), olaparib (NSC753686), talazoparib (NSC767125), ART-558 (NSC835418), sotorasib (NSC818433), MRTX-1133 (NSC836407), SN-38 (NSC673596), topotecan (NSC609699), etoposide (NSC141540), doxorubicin (NSC123127), gemcitabine (NSC613327), 5-fluorouracil (NSC19893), paclitaxel (NSC125973), vemurafenib (NSC761431), panobinostat (NSC761190), R-306465 (JNJ-16241199; NSC773264), adavosertib (NSC754352), TP-3654 (NSC805149), carboplatin (NSC241240), KSQ-4279 (NSC840948), and staurosporine (NSC755774) were obtained from the National Cancer Institute (NCI) Developmental Therapeutics Program Chemical Repository (34). The FDA-approved anticancer drug set is available from the NCI Developmental Therapeutics Program. […] The stock solutions were prepared in dimethyl sulfoxide (DMSO, Sigma-Aldrich, St. Louis, MO, cat. D2650) at 800-fold the tested concentration and stored at -70 degrees C prior to their use. All drugs and investigational agents were tested over a range starting from a high concentration at or near the clinical Cmax and decreasing in half-log increments. If the clinical Cmax for an agent had not been determined, the highest concentration tested was 10 microM.
2.3 Cell Culture. All cells were maintained in an incubator at 37 degrees C and 5% CO2 with 95% humidity. The PDC lines were cultured according to standard operating procedures established by the NCI PDMR. All PDCs were thawed and cultured in Matrigel-coated flasks prepared with a working solution of 1X Ham's F-12 nutrient mix, without supplementation (Invitrogen, cat. 11765054), 100 U/mL penicillin-streptomycin (Invitrogen, cat. 15140122), and 2.5% Matrigel (Corning Inc., cat. 354248) for the first three passages. The 857933-349-R-J2-PDC line was cultured in 6C/Colon 1B media, which includes advanced DMEM/F-12 (Thermo Fisher Scientific, cat. 12634028), 10 mM HEPES (Thermo Fisher Scientific, cat. 15630080), 1X GlutaMAX supplement (Thermo Fisher Scientific, cat. 35050061), 0.1 mg/mL primocin (InvivoGen, cat. ant-pm-2), 10% defined fetal bovine serum, heat inactivated (HyClone Laboratories Inc., cat. SH30070.03HI), 50% L-WRN conditioned media (ATCC, cat. CRL-3276), 1.25 mM N-Acetyl-L-cysteine (Sigma-Aldrich, cat. A9165), 10 mM nicotinamide (Sigma-Aldrich, cat. N0636), 1X B-27 supplement (Thermo Fisher Scientific, cat. 17504044), 1X N-2 supplement (Thermo Fisher Scientific, cat. 17502048), 10 microM Y-27632 dihydrochloride (Tocris Bioscience, cat. 1254), and 50 ng/mL human EGF recombinant protein (Thermo Fisher Scientific, cat. PHG0311). The 485176-168-R4-J1-PDC line was cultured in Panc media, which includes all 6C/Colon 1B media components plus 100 ng/mL human FGF-10 (Thermo Fisher Scientific, cat. 100-26), 500 nM SB-431542 (Selleckchem, cat. S1067), and gastrin (Tocris, cat. 3006).
[…]

[1] = second compound 0.0316 µM, first compound 0.0316 µM
[2] = second compound 0.0316 µM, first compound 0.1 µM
[3] = second compound 0.0316 µM, first compound 0.316 µM
[4] = second compound 0.0316 µM, first compound 1 µM
[5] = second compound 0.0316 µM, first compound 3.16 µM
[6] = second compound 0.0316 µM, first compound 10 µM
[7] = second compound 0.1 µM, first compound 0.0316 µM
[8] = second compound 0.1 µM, first compound 0.1 µM
[9] = second compound 0.1 µM, first compound 0.316 µM
[10] = second compound 0.1 µM, first compound 1 µM
[11] = second compound 0.1 µM, first compound 3.16 µM
[12] = second compound 0.1 µM, first compound 10 µM
[13] = second compound 0.316 µM, first compound 0.0316 µM
[14] = second compound 0.316 µM, first compound 0.1 µM
[15] = second compound 0.316 µM, first compound 0.316 µM
[16] = second compound 0.316 µM, first compound 1 µM
[17] = second compound 0.316 µM, first compound 3.16 µM
[18] = second compound 0.316 µM, first compound 10 µM
[19] = second compound 1 µM, first compound 0.0316 µM
[20] = second compound 1 µM, first compound 0.1 µM
[21] = second compound 1 µM, first compound 0.316 µM
[22] = second compound 1 µM, first compound 1 µM
[23] = second compound 1 µM, first compound 3.16 µM
[24] = second compound 1 µM, first compound 10 µM
[25] = second compound 3.16 µM, first compound 0.0316 µM
[26] = second compound 3.16 µM, first compound 0.1 µM
[27] = second compound 3.16 µM, first compound 0.316 µM
[28] = second compound 3.16 µM, first compound 1 µM
[29] = second compound 3.16 µM, first compound 3.16 µM
[30] = second compound 3.16 µM, first compound 10 µM
[31] = second compound 10 µM, first compound 0.0316 µM
[32] = second compound 10 µM, first compound 0.1 µM
[33] = second compound 10 µM, first compound 0.316 µM
[34] = second compound 10 µM, first compound 1 µM
[35] = second compound 10 µM, first compound 3.16 µM
[36] = second compound 10 µM, first compound 10 µM

`CC(C)n1c(=O)n(C)c2cnc3cc(F)c(-c4ccc(OCCCN5CCCCC5)nc4)cc3c21` + CN(C)c1ccc(Nc2c3ccc(NC(=O)CCN4CCCC4)cc3nc3cc(NC(=O)CCN4CCCC4)ccc23)cc1 was tested, and the IC50 (second compound 0.0316 µM) was 3960 nM, the IC50 (second compound 0.1 µM) was 3780 nM and the IC50 (second compound 0.316 µM) was 4030 nM. It also gave an IC50 (second compound 1 µM) of 1500 nM, an IC50 (second compound 3.16 µM) of under 31.6 nM and an IC50 (second compound 10 µM) of under 31.6 nM. For the same compound, the viability, T/C [1] was 91.8%, the viability, T/C [2] was 70.1% and the viability, T/C [3] was 90.8%. For the same compound, the viability, T/C [4] was 72.2%, the viability, T/C [5] was 59.2% and the viability, T/C [6] was 15.5%. It also gave a viability, T/C [7] of 93.3%, a viability, T/C [8] of 59.2% and a viability, T/C [9] of 87.3%. The viability, T/C [10] was 72%, the viability, T/C [11] was 55.2% and the viability, T/C [12] was 18%. For the same compound, the viability, T/C [13] was 86.1%, the viability, T/C [14] was 69.6% and the viability, T/C [15] was 83.4%. It also gave a viability, T/C [16] of 74.8%, a viability, T/C [17] of 58.9% and a viability, T/C [18] of 16.7%. For the same compound, the viability, T/C [19] was 54.6%, the viability, T/C [20] was 53.1% and the viability, T/C [21] was 58.9%. It also gave a viability, T/C [22] of 55.6%, a viability, T/C [23] of 40% and a viability, T/C [24] of 13%. It also gave a viability, T/C [25] of 49.7%, a viability, T/C [26] of 39.4% and a viability, T/C [27] of 27%. For the same compound, the viability, T/C [28] was 21.9%, the viability, T/C [29] was 19.8% and the viability, T/C [30] was 10.7%. For the same compound, the viability, T/C [31] was 18.3%, the viability, T/C [32] was 18.8% and the viability, T/C [33] was 11.4%. For the same compound, the viability, T/C [34] was 10.5%, the viability, T/C [35] was 7.56% and the viability, T/C [36] was 3.54%.

Work on `CC1COCCN1c1cc(-c2ccnn2C)c2ccnc(-c3ccn[nH]3)c2n1` (centres undefined) + CN(C)c1ccc(Nc2c3ccc(NC(=O)CCN4CCCC4)cc3nc3cc(NC(=O)CCN4CCCC4)ccc23)cc1 yielded an IC50 (second compound 0.0316 µM) of 50.7 nM, an IC50 (second compound 0.1 µM) of 49.6 nM and an IC50 (second compound 0.316 µM) of 37.1 nM. The IC50 (second compound 1 µM) was 43 nM, the IC50 (second compound 3.16 µM) was under 31.6 nM and the IC50 (second compound 10 µM) was under 31.6 nM. For the same compound, the viability, T/C [1] was 66.2%, the viability, T/C [2] was 26.3% and the viability, T/C [3] was 12.3%. It also gave a viability, T/C [4] of 7.64%, a viability, T/C [5] of 4.82% and a viability, T/C [6] of 3.77%. The viability, T/C [7] was 66.3%, the viability, T/C [8] was 24.2% and the viability, T/C [9] was 11.8%. The viability, T/C [10] was 7.54%, the viability, T/C [11] was 5.16% and the viability, T/C [12] was 3.61%. For the same compound, the viability, T/C [13] was 54.9%, the viability, T/C [14] was 21.5% and the viability, T/C [15] was 9.35%. The viability, T/C [16] was 6.62%, the viability, T/C [17] was 5.67% and the viability, T/C [18] was 3.51%. For the same compound, the viability, T/C [19] was 57.8%, the viability, T/C [20] was 28.5% and the viability, T/C [21] was 11.7%. The viability, T/C [22] was 7.28%, the viability, T/C [23] was 5.79% and the viability, T/C [24] was 3.85%. For the same compound, the viability, T/C [25] was 44%, the viability, T/C [26] was 18.2% and the viability, T/C [27] was 11.2%. It also gave a viability, T/C [28] of 7.75%, a viability, T/C [29] of 4.98% and a viability, T/C [30] of 3.18%. The viability, T/C [31] was 20.6%, the viability, T/C [32] was 10.5% and the viability, T/C [33] was 9.22%. For the same compound, the viability, T/C [34] was 5.87%, the viability, T/C [35] was 5.04% and the viability, T/C [36] was 3.72%.
